Laboratory results reported in patent US8673911B2, “Inhibitors of histone deacetylase” (MethylGene Inc., priority 2007, dated 2014).

target: one or more of HDAC4, HDAC5, HDAC6, HDAC7, HDAC8, HDAC9 and HDAC11; assay: Inhibition of histone deacetylase enzymatic activity (fluorogenic Boc-Lys(Ac)-AMC / Boc-Lys(trifluoroacetyl)-AMC substrate); type: biochemical; conditions: against one or more of HDAC4, HDAC5, HDAC6, HDAC7, HDAC8, HDAC9 and HDAC11
Description: Inhibition of HDAC-1,2,3,6 and 8
The following protocol is used to assay the compounds of the invention. In the assay, the buffer used is 25 mM HEPES, pH 8.0, 137 mM NaCl, 2.7 mM KCl, 1 mM MgCl2 and the substrate is Boc-Lys(Ac)-AMC in a 50 mM stock solution in DMSO. The enzyme stock solution is 4.08 μg/mL in buffer.
The compounds are pre-incubated (2 μl, in DMSO diluted to […] in buffer for transfer to assay plate) with enzyme (20 μL of 4.08 μg/mL) for 10 minutes at room temperature (35 μL pre-incubation volume). The mixture is pre-incubated for 5 minutes at room temperature. The reaction is started by bringing the temperature to 37° C. and adding 15 μL substrate. Total reaction volume is 50 μL. The reaction is stopped after 20 minutes by addition of 50 μL developer, prepared as directed by Biomol (FLUOR DE LYS™ developer, Cat. # KI-105). A plate is incubated in the dark for 10 minutes at room temperature before reading (λEx=360 nm, λEm=470 nm, Cutoff filter at 435 nm).
Inhibition of Class II HDAC and HDAC-11
A 30 mM stock of Boc-Lys(trifluoroacetyl)-AMC substrate is prepared in DMSO. 2 μL test compound in DMSO is diluted to 50 μL in buffer (25 mM HEPES, pH 8.0, 137 mM NaCl, 2.7 mM KCl, 1 mM MgCl2, 0.1% BSA) and pre-incubated with HDAC enzyme (30 μL of a final enzyme concentration of 0.1-0.2 nM) for 10 minutes at room temperature. Reaction is started by adding 18 μL Boc-Lys(trifluoroacetyl)-AMC substrate and incubating at 37° C. for 20-30 minutes. The reaction is stopped by adding 50 μL trypsin (1 mg/mL) and a known HDAC inhibitor. The plate is then incubated in the dark for 20 minutes at room temperature and read with Ex=360 nm, Em=470 nm, cutoff filter at 435 nm.

| Structure (SMILES) | IC50 [nM] |
| --- | --- |
| O=C(NO)c1ccccc1-c1cccc([N+](=O)[O-])c1 [Compound 26, N-hydroxy-3′-nitrobiphenyl-2-carboxamide] | 750 to 5000 |
| O=C(NO)c1sc(-c2ccc3c(c2)OCO3)nc1-c1ccccc1 [compound 81] | < 250 |
| COc1cccc(-c2cc(F)ccc2C(=O)NO)c1 [Compound 98, 5-fluoro-N-hydroxy-3′-methoxybiphenyl-2-carboxamidc] | 500 to 750 |
| O=C(NO)c1cnc(-c2ccccc2)nc1-c1ccccc1 [Compound 141, N-hydroxy-2,4-diphenylpyrimidine-5-carboxamide] | 250 to 500 |
| O=C(NO)c1sc(-c2ccc(OCCN3CCOCC3)cc2)nc1-c1ccccc1 [Compound 146, N-hydroxy-2-(4-(2-morpholinoethoxy)phenyl)-4-phenylthiazole-5-carboxamide] | < 250 |
| Cc1cscc1-c1ccc(C(=O)NO)c(-c2cscc2C)c1 [Compound 51, N-hydroxy-2,4-bis(4-methylthiophen-3-yl)benzamide] | < 250 |
| O=C(NO)c1sc(C2CCN(Cc3ccncc3)CC2)nc1-c1ccccc1 [Compound 144, N-hydroxy-4-phenyl-2-(1-(pyridin-4-ylmethyl)piperidin-4-yl)thiazole-5-carboxamide] | < 250 |
| COc1cccc(-c2ccccc2C(=O)NO)c1 [Compound 19, N-hydroxy-3′-melhoxybipheny 1-2-carboxamide] | 750 to 5000 |
| O=C(NO)c1sc(-c2cccnc2)nc1-c1ccccc1 [Compound 120, N-hydroxy-4-phenyl-2-(pyridin-3-yl)thiazole-5-carboxamide] | < 250 |
| O=C(NO)c1sc(N2CCCc3ccccc32)nc1-c1ccccc1 [Compound 121, 2-(3,4-dihydroquinolin-1(2H)-yl)-N-hydroxy-4-phenylthiazole-5-carboxamide] | < 250 |
| O=C(NO)c1sc(C(c2ccccc2)c2ccccc2)nc1-c1ccccc1 [Compound 150, 2-benzhydryl-N-hydroxy-4-phenylthiazole-5-carboxamide] | < 250 |
| O=C(NO)c1cn(-c2ccccc2)nc1-c1ccc(F)cc1 [Compound 108, 3-(4-fluorophenyl)-N-hydroxy-1-phenyl-1H-pyrazole-4-carboxamide] | 750 to 5000 |
| O=C(NO)c1ccc(C2=Nc3ccccc3Oc3ccccc32)cc1-c1ccccc1 [Compound 104, (Z)-5-(dibenzo[b,f][1,4]oxazepin-11-yl)-N-hydroxybiphenyl-2-carboxamide] | < 250 |
| O=C(NO)c1sc(N2CCCCC2)nc1-c1ccccc1 [Compound 117, N-hydroxy-4-phenyl-2-(piperidin-1-yl)thiazole-5-carboxamide] | < 250 |
